Assay results taken from patent US8163718B2, “Nucleoside analogues containing phosphonate or phosphonamide groups” (Gilead Sciences, Inc., priority 2008, dated 2012).

Each molecule was assayed on A549 (assay: Cytostatic cell culture assay (GI50), SRB). Conditions: Homo sapiens, A549, 120 h; 5 days incubation.
Type: cell-based
Text: (§1) The assay is based on quantification of cell counts by a colorimetric detection of the cell associated proteins. The assay relies on the ability of sulforhodamine B (SRB) to bind to protein components of cells that have been fixed to tissue-culture plates by trichloroacetic acid (TCA). SRB is a bright-pink aminoxanthene dye with two sulfonic groups that bind to basic amino-acid residues under mild acidic conditions, and dissociate under basic conditions. As the binding of SRB is stoichiometric, the amount of dye extracted from stained cells is directly proportional to the cell mass.
(§2) Cell lines: All cell lines were obtained from ATCC (Manassas, Va.). Cultivation media containing Glutamax, and trypsin were purchased from Invitrogen (Carlsbad, Calif.). Doxorubicin, Clofarabine, TCA and SRB were from Sigma-Aldrich (St. Louis, Mo.). Gemcitabine was obtained from Moravek Biochemicals (Brea, Calif.)
(§3) • 1. Trypsinize the sub-confluent cells, count them, and adjust the cell concentrations according to the cell counts listed in Table 1. • 2. Distribute the cells into the 96-well plates in 150 μL of media. Incubate the plates overnight in humidified CO2 incubator at 37° C. • 3. Fix one plate of each cell line with TCA. Discard the cultivation media from the plates by flicking them gently and add 100 ul cold 10% (vol/vol) TCA to each well. Incubate the plates at 4 degree refrigerator for 1 hour. Discard TCA from the plates by flicking them gently. Rinse plates four times in a washing basin containing tap water. Store the plates at room temperature. These plates represent cell counts on day zero. • 4. Prepare a set of medium solutions containing various concentrations of tested compounds by making 5-fold serial dilutions in 96-well plate. Add 50 μL of the diluted compounds per well. Include controls with untreated cells and cells treated with doxorubicin, clofarabine and gemcitabine. • 5. Incubate the plates for 5 days at 37° C. • 6. Fix the plates with TCA. Discard the cultivation media from the plates by flicking them gently and add 100 ul cold 10% (vol/vol) TCA to each well. Incubate the plates at 4 degree refrigerator for 1 hour. Discard TCA from the plates by flicking them gently. Rinse plates four times in a washing basin containing tap water. • 7. Remove excess water by tapping the plates face down, gently on a paper towel. Allow the plates to air-dry at room temperature. • 8. Add 100 ul of 0.057% SRB solution in 1% (vol/vol) acetic acid to each well of the plates fixed with TCA on day zero and five. Leave at room temperature for 30 minutes. • 9. Flick the plates gently to discard SRB. Rinse the plates four times with 1% (vol/vol) Acetic Acid. • 10. Store the plates at 37 degree incubator to facilitate faster drying. • 11. Once the plates are completely dry, add 200 ul of 10 mM Tris base solution (pH 10.5) to each well. Leave at room temperature for 30 minutes for SRB to solubilize. • 12. Measure the OD at 500 nm in a microplate reader • 13. Calculate the percentage of cell-growth inhibition using the next formula: % of control cell growth=100×(ODsample−mean ODday0)/(ODneg control−mean ODday0)
(§4) For GI50 determination, plot a dose-response curve between the compound concentration and percent of growth inhibition. GI50 values can be derived by fitting dose-response curves using sigmoidal dose response equation.

Compound | GI50 [nM]
CCCOc1nc(N)nc2c1ncn2CCOCP(=O)(Oc1ccc(Cl)cc1)N1CCC[C@H]1C(=O)OCC (stereo partly drawn) [Example 62] | 1870
CCCOc1nc(N)nc2c1ncn2CCOCP(=O)(Oc1ccc(C#N)cc1)N1CCC[C@H]1C(=O)OCC (stereo partly drawn) [Example 63] | 14
CCCCOC(=O)[C@H](Cc1ccccc1)NP(=O)(COCCn1cnc2c(OC)nc(N)nc21)N[C@@H](Cc1ccccc1)C(=O)OCCCC [Example 31] | 6

Next, values leading:

GI50 [nM] | Compound
52 | CCCCOC(=O)[C@H](C)NP(=O)(COCCn1cnc2c(OCCC)nc(N)nc21)N[C@@H](C)C(=O)OCCCC [Example 13]
36 | CCOC(=O)[C@H](Cc1ccccc1)NP(=O)(COCCn1cnc2c(OC)nc(N)nc21)N[C@@H](Cc1ccccc1)C(=O)OCC [Example 30]
451 | CCOC(=O)[C@H](C)NP(=O)(COCCn1cnc2c(OC3CCC3)nc(N)nc21)N[C@@H](C)C(=O)OCC [Example 45]

Each molecule was assayed on BT-549 (assay: Cytostatic cell culture assay (GI50), SRB). Conditions: Homo sapiens, BT-549, 120 h; 5 days incubation.
Type: cell-based
Text: as §1, §2, §3, §4

Compound | GI50 [nM]
CCCOc1nc(N)nc2c1ncn2CCOCP(=O)(Oc1ccc(Cl)cc1)N1CCC[C@H]1C(=O)OCC (stereo partly drawn) [Example 62] | 4440
CCCOc1nc(N)nc2c1ncn2CCOCP(=O)(Oc1ccc(C#N)cc1)N1CCC[C@H]1C(=O)OCC (stereo partly drawn) [Example 63] | 282
CCCCOC(=O)[C@H](Cc1ccccc1)NP(=O)(COCCn1cnc2c(OC)nc(N)nc21)N[C@@H](Cc1ccccc1)C(=O)OCCCC [Example 31] | 20

The remaining lines, values ahead:

GI50 [nM] | Compound
61 | CCCCOC(=O)[C@H](C)NP(=O)(COCCn1cnc2c(OCCC)nc(N)nc21)N[C@@H](C)C(=O)OCCCC [Example 13]
23 | CCOC(=O)[C@H](Cc1ccccc1)NP(=O)(COCCn1cnc2c(OC)nc(N)nc21)N[C@@H](Cc1ccccc1)C(=O)OCC [Example 30]
269 | CCOC(=O)[C@H](C)NP(=O)(COCCn1cnc2c(OC3CCC3)nc(N)nc21)N[C@@H](C)C(=O)OCC [Example 45]

The molecules below were run on Du-145 (assay: Cytostatic cell culture assay (GI50), SRB). Conditions: Homo sapiens, DU-145, 120 h; 5 days incubation.
Type: cell-based
Text: as §1, §2, §3, §4

Compound | GI50 [nM]
CCCOc1nc(N)nc2c1ncn2CCOCP(=O)(Oc1ccc(Cl)cc1)N1CCC[C@H]1C(=O)OCC (stereo partly drawn) [Example 62] | 1
CCCOc1nc(N)nc2c1ncn2CCOCP(=O)(Oc1ccc(C#N)cc1)N1CCC[C@H]1C(=O)OCC (stereo partly drawn) [Example 63] | 1
CCCCOC(=O)[C@H](Cc1ccccc1)NP(=O)(COCCn1cnc2c(OC)nc(N)nc21)N[C@@H](Cc1ccccc1)C(=O)OCCCC [Example 31] | 1

Continued, values first:

GI50 [nM] | Compound
2 | CCCCOC(=O)[C@H](C)NP(=O)(COCCn1cnc2c(OCCC)nc(N)nc21)N[C@@H](C)C(=O)OCCCC [Example 13]
3 | CCOC(=O)[C@H](Cc1ccccc1)NP(=O)(COCCn1cnc2c(OC)nc(N)nc21)N[C@@H](Cc1ccccc1)C(=O)OCC [Example 30]
8 | CCOC(=O)[C@H](C)NP(=O)(COCCn1cnc2c(OC3CCC3)nc(N)nc21)N[C@@H](C)C(=O)OCC [Example 45]

Each molecule was assayed on HCT-116 (assay: Cytostatic cell culture assay (GI50), SRB). Conditions: Homo sapiens, HCT-116, 120 h; 5 days incubation.
Type: cell-based
Text: as §1, §2, §3, §4

Compound | GI50 [nM]
CCCOc1nc(N)nc2c1ncn2CCOCP(=O)(Oc1ccc(Cl)cc1)N1CCC[C@H]1C(=O)OCC (stereo partly drawn) [Example 62] | 2790
CCCOc1nc(N)nc2c1ncn2CCOCP(=O)(Oc1ccc(C#N)cc1)N1CCC[C@H]1C(=O)OCC (stereo partly drawn) [Example 63] | 184
CCCCOC(=O)[C@H](Cc1ccccc1)NP(=O)(COCCn1cnc2c(OC)nc(N)nc21)N[C@@H](Cc1ccccc1)C(=O)OCCCC [Example 31] | 6

The remaining lines, values ahead:

GI50 [nM] | Compound
13 | CCCCOC(=O)[C@H](C)NP(=O)(COCCn1cnc2c(OCCC)nc(N)nc21)N[C@@H](C)C(=O)OCCCC [Example 13]
27 | CCOC(=O)[C@H](Cc1ccccc1)NP(=O)(COCCn1cnc2c(OC)nc(N)nc21)N[C@@H](Cc1ccccc1)C(=O)OCC [Example 30]
372 | CCOC(=O)[C@H](C)NP(=O)(COCCn1cnc2c(OC3CCC3)nc(N)nc21)N[C@@H](C)C(=O)OCC [Example 45]

What follows are molecules tested on HCT-15 (assay: Cytostatic cell culture assay (GI50), SRB). Conditions: Homo sapiens, HCT-15, 120 h; 5 days incubation.
Type: cell-based
Text: as §1, §2, §3, §4

Compound | GI50 [nM]
CCCOc1nc(N)nc2c1ncn2CCOCP(=O)(Oc1ccc(Cl)cc1)N1CCC[C@H]1C(=O)OCC (stereo partly drawn) [Example 62] | 10000
CCCOc1nc(N)nc2c1ncn2CCOCP(=O)(Oc1ccc(C#N)cc1)N1CCC[C@H]1C(=O)OCC (stereo partly drawn) [Example 63] | 3350
CCCCOC(=O)[C@H](Cc1ccccc1)NP(=O)(COCCn1cnc2c(OC)nc(N)nc21)N[C@@H](Cc1ccccc1)C(=O)OCCCC [Example 31] | 604

The next lines start with the values.

GI50 [nM] | Compound
1090 | CCCCOC(=O)[C@H](C)NP(=O)(COCCn1cnc2c(OCCC)nc(N)nc21)N[C@@H](C)C(=O)OCCCC [Example 13]
1900 | CCOC(=O)[C@H](Cc1ccccc1)NP(=O)(COCCn1cnc2c(OC)nc(N)nc21)N[C@@H](Cc1ccccc1)C(=O)OCC [Example 30]
8300 | CCOC(=O)[C@H](C)NP(=O)(COCCn1cnc2c(OC3CCC3)nc(N)nc21)N[C@@H](C)C(=O)OCC [Example 45]

These molecules were tested on Hs-578 (assay: Cytostatic cell culture assay (GI50), SRB). Conditions: Hs578, 120 h; 5 days incubation.
Type: cell-based
Text: as §1, §2, §3, §4

Compound | GI50 [nM]
CCCCOC(=O)[C@H](C)NP(=O)(COCCn1cnc2c(OCCC)nc(N)nc21)N[C@@H](C)C(=O)OCCCC [Example 13] | 105
CCCOc1nc(N)nc2c1ncn2CCOCP(=O)(Oc1ccc(Cl)cc1)N1CCC[C@H]1C(=O)OCC (stereo partly drawn) [Example 62] | 1070
CCOC(=O)[C@H](Cc1ccccc1)NP(=O)(COCCn1cnc2c(OC)nc(N)nc21)N[C@@H](Cc1ccccc1)C(=O)OCC [Example 30] | 17
CCOC(=O)[C@H](C)NP(=O)(COCCn1cnc2c(OC3CCC3)nc(N)nc21)N[C@@H](C)C(=O)OCC [Example 45] | 174
CCCOc1nc(N)nc2c1ncn2CCOCP(=O)(Oc1ccc(C#N)cc1)N1CCC[C@H]1C(=O)OCC (stereo partly drawn) [Example 63] | 7
CCCCOC(=O)[C@H](Cc1ccccc1)NP(=O)(COCCn1cnc2c(OC)nc(N)nc21)N[C@@H](Cc1ccccc1)C(=O)OCCCC [Example 31] | 5

These molecules were tested on NCI-H23 (assay: Cytostatic cell culture assay (GI50), SRB). Conditions: Homo sapiens, NCI-H23, 120 h; 5 days incubation.
Type: cell-based
Text: as §1, §2, §3, §4

Compound | GI50 [nM]
CCCOc1nc(N)nc2c1ncn2CCOCP(=O)(Oc1ccc(Cl)cc1)N1CCC[C@H]1C(=O)OCC (stereo partly drawn) [Example 62] | 49
CCCOc1nc(N)nc2c1ncn2CCOCP(=O)(Oc1ccc(C#N)cc1)N1CCC[C@H]1C(=O)OCC (stereo partly drawn) [Example 63] | 1
CCCCOC(=O)[C@H](Cc1ccccc1)NP(=O)(COCCn1cnc2c(OC)nc(N)nc21)N[C@@H](Cc1ccccc1)C(=O)OCCCC [Example 31] | 2

Now from value to molecule:

GI50 [nM] | Compound
4 | CCCCOC(=O)[C@H](C)NP(=O)(COCCn1cnc2c(OCCC)nc(N)nc21)N[C@@H](C)C(=O)OCCCC [Example 13]
10 | CCOC(=O)[C@H](Cc1ccccc1)NP(=O)(COCCn1cnc2c(OC)nc(N)nc21)N[C@@H](Cc1ccccc1)C(=O)OCC [Example 30]
22 | CCOC(=O)[C@H](C)NP(=O)(COCCn1cnc2c(OC3CCC3)nc(N)nc21)N[C@@H](C)C(=O)OCC [Example 45]

Each molecule was assayed on PC3 (assay: Cytostatic cell culture assay (GI50), SRB). Conditions: Homo sapiens, PC-3, 120 h; 5 days incubation.
Type: cell-based
Text: as §1, §2, §3, §4

Compound | GI50 [nM]
CCCOc1nc(N)nc2c1ncn2CCOCP(=O)(Oc1ccc(Cl)cc1)N1CCC[C@H]1C(=O)OCC (stereo partly drawn) [Example 62] | 44
CCCOc1nc(N)nc2c1ncn2CCOCP(=O)(Oc1ccc(C#N)cc1)N1CCC[C@H]1C(=O)OCC (stereo partly drawn) [Example 63] | 2
CCCCOC(=O)[C@H](Cc1ccccc1)NP(=O)(COCCn1cnc2c(OC)nc(N)nc21)N[C@@H](Cc1ccccc1)C(=O)OCCCC [Example 31] | 16

Further lines, results first:

GI50 [nM] | Compound
11 | CCCCOC(=O)[C@H](C)NP(=O)(COCCn1cnc2c(OCCC)nc(N)nc21)N[C@@H](C)C(=O)OCCCC [Example 13]
103 | CCOC(=O)[C@H](Cc1ccccc1)NP(=O)(COCCn1cnc2c(OC)nc(N)nc21)N[C@@H](Cc1ccccc1)C(=O)OCC [Example 30]
113 | CCOC(=O)[C@H](C)NP(=O)(COCCn1cnc2c(OC3CCC3)nc(N)nc21)N[C@@H](C)C(=O)OCC [Example 45]
